Patent publication US6518302B1, “Remedies” (Takara Shuzo Co., Ltd., priority 1999, dated 2003)

Columns and labels:
[1] = tested on: IL-10 production in RAW264.7 cells; test: Inhibition of LPS-induced IL-10 production (ELISA); type: cell-based, Mouse; conditions: 0.5 ml, 5 μl of 10 mM compound (14), 1 μl of 25 mM compound (7) or 1 μl of 50 mM compound (17), 18 hours after LPS
Protocol: RAW264.7 cells (ATCC TIB 71) were suspended in Dulbecco's modified Eagle's medium (Bio Whittaker, 12-604F) containing 10% fetal calf serum (Gibco) at a concentration of 3×10^5 cells/ml. 0.5 ml of the suspension was added to each well of a 48-well microtiter plate and the plate was incubated at 37° C. overnight in the presence of 5% CO2. 5 μl of a solution containing the compound (14) at a concentration of 10 mM in water, 1 μl of a solution of the compound (7) at a concentration of 25 mM in dimethyl sulfoxide, or 1 μl of a solution of the compound (17) at a concentration of 50 mM in dimethyl sulfoxide was added to the well. After incubation for additional 5 hours, 5 μl of a solution of lipopolysaccharide (LPS, Sigma, L-2012) at a concentration of 100 μg/ml in water was added thereto. After incubation for 18 hours, a culture supernatant was collected. The content of interleukin 10 (IL-10) in the culture supernatant was measured using enzyme immuno sandwich assay (ELISA; Mouse IL-10 ELISA Kit, Endogen). As a control, a group to which the sample or the LPS aqueous solution was not added was provided. All of the measurements were carried out in duplicate.
FIG. 27 illustrates the IL-10 concentrations in culture supernatants obtained by culturing under various culture conditions. The horizontal axis represents the culture conditions and the vertical axis represents the IL-10 concentration (pg/ml).

[2] = tested on: heme oxygenase 1 protein in RAW264.7 cells; test: Heme oxygenase 1 induction (Western blot); type: cell-based; parameters: key: − represents no band observed; increase in the intensity of the band is represented as follows: +−<+<++; increase in the intensity of the band is represented as follows: +−<+<++; increase in the intensity of the band is represented as follows: +−<+<++; conditions: 12 hours
Protocol: RAW264.7 cells (ATCC TIB 71) were suspended in Dulbecco's modified Eagle's medium (Bio Whittaker, 12-604F) containing 10% fetal calf serum (Gibco) at a concentration of 3×10^5 cells/ml. 5 ml of the suspension was added to each well of a 6-well microtiter plate and the plate was incubated at 37° C. overnight in the presence of 5% CO2. 50 μl of a solution containing the compound (11) or the compound (14) at a concentration of 10 mM or 5 mM in water, 5 μl of a solution containing the compound (7) at a concentration of 50 mM or 25 mM in dimethyl sulfoxide, or 5 μl of a solution containing the compound (17) at a concentration of 100 mM or 50 mM in dimethyl sulfoxide was added to the well. The plate was incubated for 12 hours. A positive control for heme oxygenase 1 induction in which 5 μl of 3 mM solution of 15-deoxy-Δ12,14 prostaglandin J2 (Cayman Chemical, 18570) in dimethyl sulfoxide was added, and a negative control in which water was added were provided. The cells were recovered by detaching the cells from the plate using a scraper and suspended in 0.1 M tris-HCl buffer (pH 7.5) containing 0.05 mM pepstatin A (Sigma, P5318), 0.2 mM leupeptin (Sigma, L2884), 1 mM phenylmethylsulfonyl fluoride (Nacalai Tesque, 273-27), 10 mM ethylenediaminetetraacetic acid disodium salt and 0.1% Triton X-100. A supernatant obtained by centrifuging the suspension after freezing and thawing was used as a protein fraction. The content of protein in the protein fraction was determined using Micro BCA Protein Assay Reagent (a product of Pierce sold by Takara Shuzo, P7411). A sample from the protein fraction prepared as described above was mixed with an equal volume of 0.125 M tris-hydrochloride buffer (pH 6.8) containing 4% sodium lauryl sulfate (SDS), 2% 2-mercaptoethanol, 0.001% Bromophenol Blue and 20% glycerol. After treatment at 100° C. for 5 minutes, a portion corresponding to 10 μg of protein was loaded on 12.5% SDS-polyacrylamide gel and electrophoresed at a constant current of 20 mA. After electrophoresis, the gel was transferred to a PVDF membrane (Millipore, IPVH000 10) at a constant voltage of 15 V for 25 minutes using a blotting buffer (containing 48 mM tris, 39 mM glycine, 20% methanol and 0.0375% SDS) and Trans-Blot SD Cell Semi-Dry blotting apparatus (Bio-Rad) according to the attached protocol. After transferring, the PVDF membrane was blocked in a solution of Block Ace (Dainippon Pharmaceutical, UK-B25) at 4 C overnight. After blocking, the membrane washed three times in phosphate buffered saline containing 0.1% Tween 20 for 15 minutes with gentle shaking. The membrane was reacted in phosphate buffered saline containing 10% Block Ace, 0.1% Tween 20 and 200 ng/ml of anti-heme oxygenase 1 antibody (N-19; Santa Cruz, sc-7696) at room temperature for 1 hour with gentle shaking, and then washed three times in phosphate buffered saline containing 0.1% Tween 20 for 15 minutes with gentle shaking. The membrane was reacted in phosphate buffered saline containing 10% Block Ace, 0.1% Tween 20 and 0.1% peroxidase-labeled rabbit anti-goat IgG (H+L) antibody (Zymed, 61-1620) at room temperature for 1 hour with gentle shaking, and then washed five times in phosphate buffered saline containing 0.1% Tween 20 for 15 minutes with gentle shaking. The PVDF membrane was stained using Western Blot Chemiluminescence Reagent Plus (a product of NEN Life Science Products sold by Daiichi Pure Chemicals, NEL103) according to the attached protocol and exposed to an X-ray film (Kodak, CAT165 1454). After exposure, the film was developed using FPM800 (Fuji Film).
The intensity of the band depended on the concentration of the sample. In the table, the intensity of the band for heme oxygenase 1 protein is expressed by the mark +. Specifically, − represents no band observed, and increase in the intensity of the band is represented as follows: +−<+<++.

| SMILES | inhibition of LPS-induced IL-10 production [1] | Intensity of band for heme oxygenase 1 protein ([2]; final concentration of 50 μM) | Intensity of band for heme oxygenase 1 protein ([2]; final concentration of 100 μM) | Intensity of band for heme oxygenase 1 protein ([2]; final concentration of 25 μM) |
| --- | --- | --- | --- | --- |
| OCC1OC(OC2C(CO)OC(OC3C(CO)OC(OC4C(O)COC4C(O)C(O)O)C(O)C3O)C(O)C2O)C(O)C(O)C1O [Compound (14), 4-O-β-maltotoriosyl-3,6-anhydro-D-galactose] | inhibition of LPS-induced IL-10 production was observed | + | + + |  |
| O=C[C@H](O)[C@H]1OC[C@@H](O)[C@@H]1OC(=O)c1ccccc1 [Compound (7), 4-O-benzoyl-3,6-anhydro-D-galactose] | inhibition of LPS-induced IL-10 production was observed | + |  | + |
| O=C[C@H](O)[C@H]1OC[C@@H](O)[C@@H]1OCc1ccccc1 [Compound (17), 4-O-benzyl-3,6-anhydro-D-galactose] | inhibition of LPS-induced IL-10 production was observed | + | + + |  |
